Experimental data taken from ChEMBL document CHEMBL3872220, “Amphiphilic xanthones as a potent chemical entity of anti-mycobacterial agents with membrane-targeting properties” (Eur J Med Chem, 2016).
Values after ≈ are worked out from the molar mass of the structure shown.

How the values were obtained:
[1] = system: Mycobacterium tuberculosis variant bovis; experiment: Antimycobacterial activity against Mycobacterium bovis BCG ATCC 35734 assessed as ATP leakage by measuring extracellular ATP at 2 times MIC measured at 3 hrs post dose by luciferase reporter gene assay; type: functional, Mycobacterium tuberculosis variant bovis BCG
[2] = system: Mycobacterium tuberculosis variant bovis; experiment: Antimycobacterial activity against Mycobacterium bovis BCG ATCC 35734 assessed as ATP leakage by measuring extracellular ATP at 4 times MIC measured at 6 hrs post dose by luciferase reporter gene assay; type: functional, Mycobacterium tuberculosis variant bovis BCG
[3] = system: Mycobacterium tuberculosis variant bovis; experiment: Antimycobacterial activity against Mycobacterium bovis BCG ATCC 35734 assessed as ATP leakage by measuring extracellular ATP at 0.5 times MIC measured at 3 hrs post dose by luciferase reporter gene assay; type: functional, Mycobacterium tuberculosis variant bovis BCG
[4] = system: Mycobacterium tuberculosis variant bovis; experiment: Antimycobacterial activity against Mycobacterium bovis BCG ATCC 35734 assessed as ATP leakage by measuring intracellular ATP at 0.5 times MIC measured at 3 hrs post dose by luciferase reporter gene assay; type: functional, Mycobacterium tuberculosis variant bovis BCG
[5] = system: Mycobacterium tuberculosis variant bovis; experiment: Antimycobacterial activity against Mycobacterium bovis BCG ATCC 35734 assessed as ATP leakage by measuring extracellular ATP at 1 MIC measured at 24 hrs post dose by luciferase reporter gene assay; type: functional, Mycobacterium tuberculosis variant bovis BCG
[6] = system: Mycobacterium tuberculosis variant bovis; experiment: Antimycobacterial activity against Mycobacterium bovis BCG ATCC 35734 assessed as ATP leakage by measuring extracellular ATP at 4 times MIC measured at 24 hrs post dose by luciferase reporter gene assay; type: functional, Mycobacterium tuberculosis variant bovis BCG
[7] = system: Mycobacterium tuberculosis variant bovis; experiment: Antimycobacterial activity against Mycobacterium bovis BCG ATCC 35734 assessed as ATP leakage by measuring intracellular ATP at 1 MIC measured at 6 hrs post dose by luciferase reporter gene assay; type: functional, Mycobacterium tuberculosis variant bovis BCG
[8] = system: Mycobacterium tuberculosis variant bovis; experiment: Antimycobacterial activity against Mycobacterium bovis BCG ATCC 35734 assessed as ATP leakage by measuring intracellular ATP at 0.5 times MIC measured at 1 hr post dose by luciferase reporter gene assay; type: functional, Mycobacterium tuberculosis variant bovis BCG
[9] = system: Mycobacterium tuberculosis variant bovis; experiment: Antimycobacterial activity against Mycobacterium bovis BCG ATCC 35734 assessed as ATP leakage by measuring extracellular ATP at 1 MIC measured at 6 hrs post dose by luciferase reporter gene assay; type: functional, Mycobacterium tuberculosis variant bovis BCG
[10] = system: Mycobacterium tuberculosis variant bovis; experiment: Antimycobacterial activity against Mycobacterium bovis BCG ATCC 35734 assessed as ATP leakage by measuring intracellular ATP at 1 MIC measured at 3 hrs post dose by luciferase reporter gene assay; type: functional, Mycobacterium tuberculosis variant bovis BCG
[11] = system: Mycobacterium tuberculosis variant bovis; experiment: Antimycobacterial activity against Mycobacterium bovis BCG ATCC 35734 assessed as ATP leakage by measuring extracellular ATP at 4 times MIC measured at 1 hr post dose by luciferase reporter gene assay; type: functional, Mycobacterium tuberculosis variant bovis BCG
[12] = system: Mycobacterium tuberculosis variant bovis; experiment: Antimycobacterial activity against Mycobacterium bovis BCG ATCC 35734 assessed as ATP leakage by measuring extracellular ATP at 2 times MIC measured at 24 hrs post dose by luciferase reporter gene assay; type: functional, Mycobacterium tuberculosis variant bovis BCG
[13] = system: Mycobacterium tuberculosis variant bovis; experiment: Antimycobacterial activity against Mycobacterium bovis BCG ATCC 35734 assessed as ATP leakage by measuring intracellular ATP at 1 MIC measured at 1 hr post dose by luciferase reporter gene assay; type: functional, Mycobacterium tuberculosis variant bovis BCG
[14] = system: Mycobacterium tuberculosis variant bovis; experiment: Antimycobacterial activity against Mycobacterium bovis BCG ATCC 35734 assessed as ATP leakage by measuring extracellular ATP at 1 MIC measured immediatey after addition of compounds by luciferase reporter gene assay; type: functional, Mycobacterium tuberculosis variant bovis BCG
[15] = system: Mycobacterium tuberculosis variant bovis; experiment: Antimycobacterial activity against Mycobacterium bovis BCG ATCC 35734 assessed as ATP leakage by measuring intracellular ATP at 4 times MIC measured at 1 hr post dose by luciferase reporter gene assay; type: functional, Mycobacterium tuberculosis variant bovis BCG
[16] = system: Mycobacterium tuberculosis variant bovis; experiment: Antimycobacterial activity against Mycobacterium bovis BCG ATCC 35734 assessed as ATP leakage by measuring intracellular ATP at 4 times MIC measured at 3 hrs post dose by luciferase reporter gene assay; type: functional, Mycobacterium tuberculosis variant bovis BCG
[17] = system: Mycobacterium tuberculosis variant bovis; experiment: Antimycobacterial activity against Mycobacterium bovis BCG ATCC 35734 assessed as ATP leakage by measuring intracellular ATP at 4 times MIC measured at 24 hrs post dose by luciferase reporter gene assay; type: functional, Mycobacterium tuberculosis variant bovis BCG
[18] = system: Mycobacterium tuberculosis variant bovis; experiment: Antimycobacterial activity against Mycobacterium bovis BCG ATCC 35734 assessed as ATP leakage by measuring extracellular ATP at 2 times MIC measured at 9 hrs post dose by luciferase reporter gene assay; type: functional, Mycobacterium tuberculosis variant bovis BCG
[19] = system: Mycobacterium tuberculosis variant bovis; experiment: Antimycobacterial activity against Mycobacterium bovis BCG ATCC 35734 assessed as ATP leakage by measuring intracellular ATP at 4 times MIC measured at 6 hrs post dose by luciferase reporter gene assay; type: functional, Mycobacterium tuberculosis variant bovis BCG
[20] = system: Mycobacterium tuberculosis variant bovis; experiment: Antimycobacterial activity against Mycobacterium bovis BCG ATCC 35734 assessed as ATP leakage by measuring intracellular ATP at 4 times MIC measured at 9 hrs post dose by luciferase reporter gene assay; type: functional, Mycobacterium tuberculosis variant bovis BCG
[21] = system: Mycobacterium tuberculosis variant bovis; experiment: Antimycobacterial activity against Mycobacterium bovis BCG ATCC 35734 assessed as ATP leakage by measuring extracellular ATP at 0.5 times MIC measured immediatey after addition of compounds by luciferase reporter gene assay; type: functional, Mycobacterium tuberculosis variant bovis BCG
[22] = system: Mycobacterium tuberculosis variant bovis; experiment: Antimycobacterial activity against Mycobacterium bovis BCG ATCC 35734 after 5 days by broth dilution assay; type: functional; conditions: ATCC 35734, 120 h
[23] = system: Mycobacterium tuberculosis variant bovis; experiment: Antimycobacterial activity against Mycobacterium bovis BCG ATCC 35734 assessed as ATP leakage by measuring intracellular ATP at 2 times MIC measured at 3 hrs post dose by luciferase reporter gene assay; type: functional, Mycobacterium tuberculosis variant bovis BCG
[24] = system: Mycobacterium tuberculosis variant bovis; experiment: Antimycobacterial activity against Mycobacterium bovis BCG ATCC 35734 assessed as ATP leakage by measuring extracellular ATP at 1 MIC measured at 9 hrs post dose by luciferase reporter gene assay; type: functional, Mycobacterium tuberculosis variant bovis BCG
[25] = system: Mycobacterium tuberculosis variant bovis; experiment: Antimycobacterial activity against Mycobacterium bovis BCG ATCC 35734 assessed as ATP leakage by measuring intracellular ATP at 2 times MIC measured immediatey after addition of compounds by luciferase reporter gene assay; type: functional, Mycobacterium tuberculosis variant bovis BCG
[26] = system: Mycobacterium tuberculosis variant bovis; experiment: Antimycobacterial activity against Mycobacterium bovis BCG ATCC 35734 assessed as ATP leakage by measuring extracellular ATP at 4 times MIC measured at 3 hrs post dose by luciferase reporter gene assay; type: functional, Mycobacterium tuberculosis variant bovis BCG
[27] = system: Mycobacterium tuberculosis variant bovis; experiment: Antimycobacterial activity against Mycobacterium bovis BCG ATCC 35734 assessed as ATP leakage by measuring extracellular ATP at 2 times MIC measured immediatey after addition of compounds by luciferase reporter gene assay; type: functional, Mycobacterium tuberculosis variant bovis BCG
[28] = system: Mycobacterium tuberculosis variant bovis; experiment: Antimycobacterial activity against Mycobacterium bovis BCG ATCC 35734 assessed as ATP leakage by measuring extracellular ATP at 1 MIC measured at 1 hr post dose by luciferase reporter gene assay; type: functional, Mycobacterium tuberculosis variant bovis BCG
[29] = system: Mycobacterium tuberculosis variant bovis; experiment: Antimycobacterial activity against Mycobacterium bovis BCG ATCC 35734 assessed as ATP leakage by measuring extracellular ATP at 4 times MIC measured at 9 hrs post dose by luciferase reporter gene assay; type: functional, Mycobacterium tuberculosis variant bovis BCG
[30] = system: Mycobacterium tuberculosis variant bovis; experiment: Antimycobacterial activity against Mycobacterium bovis BCG ATCC 35734 assessed as ATP leakage by measuring extracellular ATP at 0.5 times MIC measured at 6 hrs post dose by luciferase reporter gene assay; type: functional, Mycobacterium tuberculosis variant bovis BCG
[31] = system: Mycobacterium tuberculosis variant bovis; experiment: Antimycobacterial activity against Mycobacterium bovis BCG ATCC 35734 assessed as ATP leakage by measuring intracellular ATP at 1 MIC measured immediatey after addition of compounds by luciferase reporter gene assay; type: functional, Mycobacterium tuberculosis variant bovis BCG
[32] = system: Mycobacterium tuberculosis variant bovis; experiment: Antimycobacterial activity against Mycobacterium bovis BCG ATCC 35734 assessed as ATP leakage by measuring intracellular ATP at 0.5 times MIC measured at 6 hrs post dose by luciferase reporter gene assay; type: functional, Mycobacterium tuberculosis variant bovis BCG
[33] = system: Mycobacterium tuberculosis variant bovis; experiment: Antimycobacterial activity against Mycobacterium bovis BCG ATCC 35734 assessed as ATP leakage by measuring extracellular ATP at 1 MIC measured at 3 hrs post dose by luciferase reporter gene assay; type: functional, Mycobacterium tuberculosis variant bovis BCG

Compound	Activity [1]	Activity [2]	Activity [3]	Activity [4]	Activity [5]	Activity [6]	Activity [7]	Activity [8]	Activity [9]	Activity [10]	Activity [11]	Activity [12]	Activity [13]	Activity [14]	Activity [15]	Activity [16]	Activity [17]	Activity [18]	Activity [19]	Activity [20]	further results
COc1c(OCCCCN2CCOCC2)cc2oc3cc(OCCCCN4CCOCC4)c(CC=C(C)C)c(O)c3c(=O)c2c1CC=C(C)C	20%	62.8%	8.6%	91.4%	4.5%	68.5%	85.6%	79.8%	14.4%	92.3%	25.4%	50.2%	88.5%	4.7%	74.6%	66.6%	31.5%	33.1%	37.2%	41.6%	Activity [21]: 0%; MIC90 [22]: 30 µM (≈ 20.8 µg/mL); Activity [23]: 80%; Activity [24]: 13.5%; Activity [25]: 91.9%; Activity [26]: 33.4%; Activity [27]: 8.1%; Activity [28]: 11.5%; Activity [29]: 58.4%; Activity [30]: 8.6%; Activity [31]: 95.3%; Activity [32]: 91.4%; Activity [33]: 7.7%
CCCN(CCC)CCCCOc1cc2oc3cc(OCCCCN(CCC)CCC)c(OC)c(CC=C(C)C)c3c(=O)c2c(O)c1CC=C(C)C	44.2%	69.7%	20.1%	79.9%	37.5%	85.2%	69.6%	74.9%	30.4%	75.8%	16.8%	70.5%	86.8%	2.5%	83.2%	57.9%	14.8%	75.3%	30.3%	16%	Activity [21]: 0%; MIC90 [22]: 3.2 µM (≈ 2.31 µg/mL); Activity [23]: 55.8%; Activity [24]: 48.5%; Activity [25]: 97.8%; Activity [26]: 42.1%; Activity [27]: 2.2%; Activity [28]: 13.2%; Activity [29]: 84%; Activity [30]: 28%; Activity [31]: 97.5%; Activity [32]: 72%; Activity [33]: 24.2%
CCN(CC)CCCCOc1cc2oc3cc(OCCCCN(CC)CC)c(OC)c(CC=C(C)C)c3c(=O)c2c(O)c1CC=C(C)C	83.6%	93.3%	27.4%	72.6%	86.4%	93.2%	29.3%	79.2%	70.7%	33.9%	66%	94.1%	75.1%	2%	34%	10.4%	6.8%	92.8%	6.7%	5.5%	Activity [21]: 0%; MIC90 [22]: 6.4 µM (≈ 4.26 µg/mL); Activity [23]: 16.4%; Activity [24]: 85.3%; Activity [25]: 96.4%; Activity [26]: 89.6%; Activity [27]: 3.6%; Activity [28]: 24.9%; Activity [29]: 94.5%; Activity [30]: 22.9%; Activity [31]: 98%; Activity [32]: 77.1%; Activity [33]: 66.1%
